We go through 32 molecules from patent publication US20240262803A1, “COMPOUNDS, COMPOSITIONS AND METHODS OF TREATING DISORDERS” (Chungdu Anticancer Bioscience Ltd, priority 2021, published 2024).

Like-named read-outs stand apart in the source and are kept apart here.

The test system of test [1] is RPEMYC^H2B-GFP cells. The experiment in a line: Mechanism-informed phenotypic screening assay (mitotic arrest, polyploidy; GE IN-Cell Analyzer 2000). The format is cell-based. As to conditions: 20 nM to 20 μM, 24, 48 or 72 hours; for minimal effective concentration: read-out: Min. Effective conc. for polyploidy (≥5%). Here is the method:
We have Previously Developed a Mechanism-Informed Phenotypic Screening Assay to identify novel antimitotic agents (Li et al. 2019). Equipped with a prior understanding of the versatile functions of the chromosomal passenger protein (CPP) complex in orchestrating karyokinesis and cytokinesis, the screening assay is to score for phenotypes typically seen when the CPP complex is disabled. Specifically, the parameters for a positive hit are a temporary elevation of mitotic index (MI) at 24 hours of drug treatment and an accumulation of polyploid cells at 48 hours of drug treatment, indicative of mitotic arrest and cytokinetic failure respectively. These parameters exclude compounds that elicit only a prolonged arrest of cells in mitosis, a phenotype typically provoked by spindle toxins. The screening procedure is briefly summarized here. RPEMYC^H2B-GFP cells engineered to express a Histone 2B-EGFP fusion protein were passaged as batches of 96-well plates, 18-24 hours before exposure to the chemical compounds of the present disclosure at concentrations from 20 nM to 20 μM. At 24, 48 or 72 hours after initiation of treatment, cells were analyzed for either an arrest in mitosis or a change in DNA content by GE IN-Cell Analyzer 2000. As set forth in table 2 below, a value of greater than or equal to […] and less than or equal to 1.0 μM is marked e “A”; a value greater than […] and less than or equal to 10.0 μM is marked “B”; a value greater than 10.0 μM and less than or equal to 30.0 μM is marked “C”; and a value greater than 30.0 μM is marked “D.”

The test system of test [2] is RPEMYC^H2B-GFP cells. Described as above. The format is cell-based. Particulars: 20 nM to 20 μM, 24, 48 or 72 hours, read-out: Mitotic Arrest (≥5%).

In the case of `COc1cc(OC)cc(Oc2ncccc2-c2ccnc(Cl)c2)c1` [Compound 44, 2′-chloro-2-(3,5-dimethoxyphenoxy)-3,4′-bipyridine], the minimal effective concentration in the test with RPEMYC^H2B-GFP cells [1] and in the test with RPEMYC^H2B-GFP cells [2] was 1 µM each time.
Turning to `CNC(=O)c1cc(Oc2ncccc2-c2ccnc(C)c2)cc(OC2CCOC2)c1` (stereo not shown) [Compound 96, N-methyl-3-((2′-methyl-[3,4′-bipyridin]-2-yl)oxy)-5-((tetrahydrofuran-3-yl)oxy)benzamide], the minimal effective concentration with RPEMYC^H2B-GFP cells [1] and with RPEMYC^H2B-GFP cells [2] was 1 µM each time.
Turning to `CCOCCOc1cc(-c2cccnc2Oc2cc(OC)cc(-n3cccn3)c2)ccn1` [Compound 86, 2′-(2-ethoxyethoxy)-2-(3-methoxy-5-(1H-pyrazol-1-yl)phenoxy)-3,4′-bipyridine], the minimal effective concentration in the test with RPEMYC^H2B-GFP cells [1] and with RPEMYC^H2B-GFP cells [2] was 1 µM each time.
Consider `COc1cc(OC)cc(Oc2ncccc2-c2ccnc(N)c2)c1` [Compound 61, 2-(3,5-dimethoxyphenoxy)-[3,4′-bipyridin]-2′-amine], for which the minimal effective concentration in the test on RPEMYC^H2B-GFP cells [1] and in the test on RPEMYC^H2B-GFP cells [2] was 1 µM each time.
With `COc1cc(OC)cc(Oc2nccnc2-c2cc(OC)cc(OC)c2)c1` [Compound 59, 2-(3,5-dimethoxyphenoxy)-3-(3,5-dimethoxyphenyl)pyrazine], the minimal effective concentration in the test with RPEMYC^H2B-GFP cells [1] and with RPEMYC^H2B-GFP cells [2] was 0.001 to 10 µM in each case.
In the case of `COc1cc(OC)cc(Oc2cncc(-c3cccnc3)n2)c1` [Compound 82, 2-(3,5-dimethoxyphenoxy)-6-(pyridin-3-yl)pyrazine], the minimal effective concentration with RPEMYC^H2B-GFP cells [1] and with RPEMYC^H2B-GFP cells [2] was 0.001 to 10 µM throughout.
As to `COc1cc(Oc2ncccc2-c2ccncc2)cc(-c2nc(C)no2)c1` [Compound 11, 5-(3-([3,4′-bipyridin]-2-yloxy)-5-methoxyphenyl)-3-methyl-1,2,4-oxadiazole], the minimal effective concentration in the test with RPEMYC^H2B-GFP cells [1] and with RPEMYC^H2B-GFP cells [2] was 1 µM each time.
With `CNC(=O)c1cc(OC)cc(Oc2ncccc2-c2cc(C)nc(C)c2)c1` [Compound 99, 3-((2′,6′-dimethyl-[3,4′-bipyridin]-2-yl)oxy)-5-methoxy-N-methylbenzamide], the minimal effective concentration with RPEMYC^H2B-GFP cells [1] and in the test with RPEMYC^H2B-GFP cells [2] was 1 µM each time.
In the case of `CNC(=O)c1cc(Oc2ncccc2-c2ccncc2)cc(-c2cnn(C)c2)c1` [Compound 90, 3-([3,4′-bipyridin]-2-yloxy)-N-methyl-5-(1-methyl-1H-pyrazol-4-yl)benzamide], the minimal effective concentration in the test with RPEMYC^H2B-GFP cells [1] and in the test with RPEMYC^H2B-GFP cells [2] was 1 µM each time.
Turning to `CNC(=O)c1cc(OC)cc(Oc2ncccc2-c2ccnc(C(F)(F)F)c2)c1` [Compound 66, 3-methoxy-N-methyl-5-((2′-(trifluoromethyl)-[3,4′-bipyridin]-2-yl)oxy)benzamide], the minimal effective concentration with RPEMYC^H2B-GFP cells [1] and in the test on RPEMYC^H2B-GFP cells [2] was 1 µM in each case.
In the case of `CCOc1cc(Oc2ncccc2-c2ccncc2)cc(C(=O)NC)c1` [Compound 6, 3-([3,4′-bipyridin]-2-yloxy)-5-ethoxy-N-methylbenzamide], the minimal effective concentration in the test with RPEMYC^H2B-GFP cells [1] and with RPEMYC^H2B-GFP cells [2] was 1 µM in each case.
In the case of `COc1cc(OC)cc(Oc2ncccc2-c2ccnc(SC)n2)c1` [Compound 62, 4-(2-(3,5-dimethoxyphenoxy)pyridin-3-yl)-2-(methylthio)pyrimidine], the minimal effective concentration in the test on RPEMYC^H2B-GFP cells [1] and in the test on RPEMYC^H2B-GFP cells [2] was 0.001 to 10 µM each time.
With `CNC(=O)c1cc(Oc2ncccc2-c2ccncc2)cc(OC2CCOC2)c1` (stereo not shown) [Compound 101, 3-([3,4′-bipyridin]-2-yloxy)-N-methyl-5-((tetrahydrofuran-3-yl)oxy)benzamide], the minimal effective concentration with RPEMYC^H2B-GFP cells [1] and with RPEMYC^H2B-GFP cells [2] was 1 µM in each case.
For `CNc1cc(-c2cccnc2Oc2cc(OC)cc(OC)c2)ncn1` [Compound 64, 6-(2-(3,5-dimethoxyphenoxy)pyridin-3-yl)-N-methylpyrimidin-4-amine], the minimal effective concentration in the test on RPEMYC^H2B-GFP cells [1] and in the test on RPEMYC^H2B-GFP cells [2] was 0.001 to 10 µM throughout.
With `COc1cc(OC)cc(Oc2ncccc2-c2cccnc2)c1` [Compound 47, 2-(3,5-dimethoxyphenoxy)-3,3′-bipyridine], the minimal effective concentration in the test on RPEMYC^H2B-GFP cells [1] and in the test with RPEMYC^H2B-GFP cells [2] was 1 µM throughout.
With `COc1cc(Oc2ncccc2-c2ccnc(N)n2)cc(C(=O)O)c1` [Compound 24, 3-((3-(2-aminopyrimidin-4-yl)pyridin-2-yl)oxy)-5-methoxybenzoic acid], the minimal effective concentration in the test with RPEMYC^H2B-GFP cells [1] and with RPEMYC^H2B-GFP cells [2] was more than 30 µM throughout.
On to `COc1cc(OC)cc(Oc2ncccc2-c2ccccc2)c1` [Compound 55, 2-(3,5-dimethoxyphenoxy)-3-phenylpyridine], for which the minimal effective concentration in the test with RPEMYC^H2B-GFP cells [1] and in the test on RPEMYC^H2B-GFP cells [2] was 0.001 to 10 µM each time.
On to `CNC(=O)c1cc(OC)cc(Oc2nccnc2-c2ccncc2)c1` [Compound 18, 3-methoxy-N-methyl-5-((3-(pyridin-4-yl)pyrazin-2-yl)oxy)benzamide], for which the minimal effective concentration with RPEMYC^H2B-GFP cells [1] and in the test with RPEMYC^H2B-GFP cells [2] was 1 µM in each case.
Take `CCOCCOc1cc(-c2cccnc2Oc2cc(OC)cc(C(=O)NC)c2)ccn1` [Compound 85, 3-((2′-(2-ethoxyethoxy)-[3,4′-bipyridin]-2-yl)oxy)-5-methoxy-N-methylbenzamide]: the minimal effective concentration in the test on RPEMYC^H2B-GFP cells [1] and in the test with RPEMYC^H2B-GFP cells [2] was 1 µM in each case.
With `COc1cc(OC)cc(Oc2ncccc2-c2cc(OC)cc(OC)c2)c1` [Compound 58, 2-(3,5-dimethoxyphenoxy)-3-(3,5-dimethoxyphenyl)pyridine], the minimal effective concentration with RPEMYC^H2B-GFP cells [1] and with RPEMYC^H2B-GFP cells [2] was 1 µM throughout.
In the case of `Cc1noc(-c2cc(Oc3ncccc3-c3ccnc(N)n3)cc(-c3nc(C)no3)c2)n1` [Compound 22, 4-(2-(3,5-bis(3-methyl-1,2,4-oxadiazol-5-yl)phenoxy)pyridin-3-yl)pyrimidin-2-amine], the minimal effective concentration in the test with RPEMYC^H2B-GFP cells [1] and with RPEMYC^H2B-GFP cells [2] was more than 30 µM each time.
Regarding `CNC(=O)c1cc(OC)cc(Oc2ncccc2-c2cc(C)ncn2)c1` [Compound 97, 3-methoxy-N-methyl-5-((3-(6-methylpyrimidin-4-yl)pyridin-2-yl)oxy)benzamide], the minimal effective concentration with RPEMYC^H2B-GFP cells [1] and with RPEMYC^H2B-GFP cells [2] was 1 µM each time.
On to `COc1cc(OC)cc(Oc2ncccc2-c2ccncc2N)c1` [Compound 65, 2-(3,5-dimethoxyphenoxy)-[3,4′-bipyridin]-3′-amine], for which the minimal effective concentration in the test on RPEMYC^H2B-GFP cells [1] and in the test on RPEMYC^H2B-GFP cells [2] was 0.001 to 10 µM in each case.
For `COc1cc(OC)cc(Oc2nccnc2-c2cccnc2)c1` [Compound 50], the minimal effective concentration with RPEMYC^H2B-GFP cells [1] and in the test with RPEMYC^H2B-GFP cells [2] was 1 µM in each case.
Consider `CNC(=O)c1cc(OC)cc(Oc2ncccc2-c2cncnc2)c1` [Compound 91, 3-methoxy-N-methyl-5-((3-(pyrimidin-5-yl)pyridin-2-yl)oxy)benzamide], for which the minimal effective concentration in the test on RPEMYC^H2B-GFP cells [1] and in the test on RPEMYC^H2B-GFP cells [2] was 1 µM in each case.
Turning to `CNC(=O)c1cc(Oc2ncccc2-c2ccnc(C)c2)cc(-n2cccn2)c1` [Compound 88, N-methyl-3-((2′-methyl-[3,4′-bipyridin]-2-yl)oxy)-5-(1H-pyrazol-1-yl)benzamide], the minimal effective concentration in the test with RPEMYC^H2B-GFP cells [1] and in the test with RPEMYC^H2B-GFP cells [2] was 1 µM throughout.
For `COc1cc(Oc2ncccc2-c2ccncc2)cc(C(=O)NC2CC2)c1` [Compound 100, 3-([3,4′-bipyridin]-2-yloxy)-N-cyclopropyl-5-methoxybenzamide], the minimal effective concentration in the test on RPEMYC^H2B-GFP cells [1] and in the test on RPEMYC^H2B-GFP cells [2] was 1 µM throughout.
Take `COc1cc(OC)cc(Oc2cncc(-c3cccc(F)c3)n2)c1` [Compound 83, 2-(3,5-dimethoxyphenoxy)-6-(3-fluorophenyl)pyrazine]: the minimal effective concentration in the test with RPEMYC^H2B-GFP cells [1] and in the test on RPEMYC^H2B-GFP cells [2] was more than 30 µM in each case.
With `COc1cc(OC)cc(Oc2nccnc2-c2ccccc2)c1` [Compound 57, 2-(3,5-dimethoxyphenoxy)-3-phenylpyrazine], the minimal effective concentration in the test on RPEMYC^H2B-GFP cells [1] and with RPEMYC^H2B-GFP cells [2] was 0.001 to 10 µM each time.
As for `COc1cc(Oc2ncccc2-c2ccncc2)cc(C(=O)N(C)C)c1` [Compound 5, 3-([3,4′-bipyridin]-2-yloxy)-5-methoxy-N,N-dimethylbenzamide], the minimal effective concentration in the test with RPEMYC^H2B-GFP cells [1] and in the test on RPEMYC^H2B-GFP cells [2] was 0.001 to 10 µM in each case.
For the molecule `CNC(=O)c1cc(Oc2ncccc2-c2ccnc(C)c2)cc(-c2cnn(C)c2)c1` [Compound 89, N-methyl-3-(1-methyl-1H-pyrazol-4-yl)-5-((2′-methyl-[3,4′-bipyridin]-2-yl)oxy)benzamide], the minimal effective concentration in the test with RPEMYC^H2B-GFP cells [1] and in the test on RPEMYC^H2B-GFP cells [2] was 1 µM each time.
On to `COc1cc(NC(C)=O)cc(Oc2ncccc2-c2ncccn2)c1` [Compound 93, N-(3-methoxy-5-((3-(pyrimidin-2-yl)pyridin-2-yl)oxy)phenyl)acetamide], for which, in the test on RPEMYC^H2B-GFP cells [1], the “Min. Effective conc. for polyploidy (≥5%)” value is “inactive” and the “Mitotic Arrest (≥5%)” value was “inactive”.
